A short description of assay [1]: Inhibition of KHS2 Lys1 labeling site in human Huh-7 cells at 1 uM by KiNativ Profiling analysis relative to control. Conditions: condition cancer.
The target of assay [2] is Tyrosine-protein kinase ITK/TSK (Homo sapiens) (UniProt Q08881). The assay can be described thus: Inhibition of ITK (unknown origin) at 1 uM by Ambit Kinomescan binding assay relative to control.
Assay [3] has as its target T1, Serine/threonine-protein kinase D1 (Homo sapiens) (UniProt Q15139).
T1 sequence (whole entry): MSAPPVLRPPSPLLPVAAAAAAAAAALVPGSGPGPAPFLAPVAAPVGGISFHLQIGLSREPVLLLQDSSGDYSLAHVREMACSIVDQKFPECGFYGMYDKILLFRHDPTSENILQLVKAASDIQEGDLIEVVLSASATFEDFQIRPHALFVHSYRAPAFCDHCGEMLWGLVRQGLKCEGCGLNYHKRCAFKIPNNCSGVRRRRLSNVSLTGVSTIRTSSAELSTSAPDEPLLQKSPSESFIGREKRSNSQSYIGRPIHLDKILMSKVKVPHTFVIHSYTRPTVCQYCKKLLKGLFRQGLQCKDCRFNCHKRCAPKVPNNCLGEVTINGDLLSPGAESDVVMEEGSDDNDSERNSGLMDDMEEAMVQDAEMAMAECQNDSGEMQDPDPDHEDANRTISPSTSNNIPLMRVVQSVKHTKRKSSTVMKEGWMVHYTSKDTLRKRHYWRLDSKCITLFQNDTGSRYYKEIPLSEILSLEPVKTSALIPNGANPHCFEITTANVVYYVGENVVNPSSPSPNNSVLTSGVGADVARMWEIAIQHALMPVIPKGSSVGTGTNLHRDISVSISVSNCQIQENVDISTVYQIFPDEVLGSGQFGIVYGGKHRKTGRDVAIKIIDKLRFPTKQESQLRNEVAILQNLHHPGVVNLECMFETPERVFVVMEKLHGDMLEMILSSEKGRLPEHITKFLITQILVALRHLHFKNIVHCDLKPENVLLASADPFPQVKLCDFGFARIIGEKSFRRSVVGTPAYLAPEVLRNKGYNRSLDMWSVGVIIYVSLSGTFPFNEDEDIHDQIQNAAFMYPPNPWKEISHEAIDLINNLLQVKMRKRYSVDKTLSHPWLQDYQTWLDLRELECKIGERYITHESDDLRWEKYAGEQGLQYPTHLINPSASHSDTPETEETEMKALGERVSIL
The assay can be described thus: Inhibition of PRKD1 (unknown origin) at 1 uM by Ambit Kinomescan binding assay relative to control.

Assay [4] addresses Serine/threonine-protein kinase RIO3 (Homo sapiens) (UniProt O14730). Briefly: Inhibition of RIOK3 (unknown origin) at 1 uM by Ambit Kinomescan binding assay relative to control.
Assay [5] deals with Dual specificity tyrosine-phosphorylation-regulated kinase 1B (Homo sapiens) (UniProt Q9Y463). The assay can be described thus: Inhibition of DYRK1B (unknown origin) at 1 uM by Ambit Kinomescan binding assay relative to control; values are per cent of control.
Assay [6] deals with Bone morphogenetic protein receptor type-1A (Homo sapiens) (UniProt P36894). Briefly: Inhibition of BMPR1A (unknown origin) at 1 uM by Ambit Kinomescan binding assay relative to control; values are per cent of control.
The subject of assay [7] is Epidermal growth factor receptor (Homo sapiens), P00533 [UNDEFINED MUTATION]. Briefly: Inhibition of EGFR L747-E749del/A750P mutant (unknown origin) at 10 uM by Ambit Kinomescan binding assay relative to control.
In assay [8] the target is Serine/threonine-protein kinase Nek6 (Homo sapiens) (UniProt Q9HC98). Briefly: Inhibition of NEK6 (unknown origin) at 10 uM by Ambit Kinomescan binding assay.
Serine/threonine-protein kinase Nek6 (Homo sapiens), sequence (Q9HC98 whole entry): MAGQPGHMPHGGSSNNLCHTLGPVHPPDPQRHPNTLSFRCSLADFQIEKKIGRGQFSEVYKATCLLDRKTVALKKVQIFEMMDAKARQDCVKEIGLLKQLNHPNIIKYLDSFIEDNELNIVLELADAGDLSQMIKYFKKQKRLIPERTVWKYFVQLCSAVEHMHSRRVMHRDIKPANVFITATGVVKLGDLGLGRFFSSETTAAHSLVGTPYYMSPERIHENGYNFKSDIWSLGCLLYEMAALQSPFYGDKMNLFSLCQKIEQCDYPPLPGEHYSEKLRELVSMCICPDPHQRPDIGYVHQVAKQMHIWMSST
In assay [9] the target is T2, Ephrin type-B receptor 4 (Homo sapiens) (UniProt P54760).
T2 sequence (whole entry): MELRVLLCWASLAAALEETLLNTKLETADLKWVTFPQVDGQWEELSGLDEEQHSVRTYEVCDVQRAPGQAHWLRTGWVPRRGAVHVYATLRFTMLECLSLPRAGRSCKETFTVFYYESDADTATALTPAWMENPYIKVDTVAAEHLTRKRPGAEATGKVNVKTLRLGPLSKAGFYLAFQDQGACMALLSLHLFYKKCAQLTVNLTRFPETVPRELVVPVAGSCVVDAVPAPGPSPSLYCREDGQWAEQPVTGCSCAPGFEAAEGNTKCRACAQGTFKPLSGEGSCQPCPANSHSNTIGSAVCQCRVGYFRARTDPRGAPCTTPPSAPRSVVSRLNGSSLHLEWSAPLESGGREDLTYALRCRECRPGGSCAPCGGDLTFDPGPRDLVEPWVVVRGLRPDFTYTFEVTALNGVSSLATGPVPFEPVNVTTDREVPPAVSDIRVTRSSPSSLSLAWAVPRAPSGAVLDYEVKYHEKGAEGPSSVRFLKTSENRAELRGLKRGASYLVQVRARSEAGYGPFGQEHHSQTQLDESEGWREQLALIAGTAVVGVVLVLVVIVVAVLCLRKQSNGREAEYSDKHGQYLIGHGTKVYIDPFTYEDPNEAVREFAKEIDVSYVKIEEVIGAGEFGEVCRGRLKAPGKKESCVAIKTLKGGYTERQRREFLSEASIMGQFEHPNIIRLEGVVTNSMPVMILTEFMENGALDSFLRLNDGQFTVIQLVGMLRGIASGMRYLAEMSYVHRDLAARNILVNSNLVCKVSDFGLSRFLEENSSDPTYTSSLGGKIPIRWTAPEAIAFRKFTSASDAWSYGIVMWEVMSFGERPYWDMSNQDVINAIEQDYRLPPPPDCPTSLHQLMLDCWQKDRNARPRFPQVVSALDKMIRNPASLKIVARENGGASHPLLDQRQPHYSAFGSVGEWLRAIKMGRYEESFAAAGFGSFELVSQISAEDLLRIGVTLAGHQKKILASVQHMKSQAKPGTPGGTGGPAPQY
Briefly: Inhibition of EPHB4 (unknown origin) at 10 uM by Ambit Kinomescan binding assay.

The target of assay [10] is Tyrosine-protein kinase Tec (Homo sapiens) (UniProt P42680). Briefly: Inhibition of TEC (unknown origin) at 10 uM by Ambit Kinomescan binding assay.
Assay [11] can be described thus: Inhibition of KHS1 Lys2 labeling site in human A-375 cells at 5 uM by KiNativ Profiling analysis relative to control. The following applies: condition cancer.
Assay [12] has as its target DNA-dependent protein kinase catalytic subunit (Homo sapiens) (UniProt P78527). Briefly: Inhibition of PRKDC ATP labeling site harbouring KGGSWIQEINVAEKNWYPR in human Huh-7 cells at 10 uM by KiNativ Profiling analysis relative to control. Type of assay: cell-based.
Assay [13] concerns the target STE20-like serine/threonine-protein kinase (Homo sapiens) (UniProt Q9H2G2). Briefly: Inhibition of SLK K2 labeling site harbouring DLKAGNILFTLDGDIK in human Huh-7 cells at 1 uM by KiNativ Profiling analysis relative to control. In kind it is cell-based.
Assay [14] deals with Tyrosine-protein kinase Fer (Homo sapiens, UniProt P16591). Briefly: Inhibition of FER (unknown origin) ACT labeling site by KiNativ Profiling analysis.

Structures are written as SMILES. Calls of active or inactive are those of the source. The calls are words filed in the database; no cut-off is given here.

For orientation: inhibition means how much of the control response was suppressed. In general, residual activity refers to what remains of the control signal, in per cent. A high value points to a small loss of activity. By IC50 is commonly meant the concentration that inhibits the measured activity by half. A low value points to higher potency.

DNA-dependent protein kinase catalytic subunit (Homo sapiens), sequence (P78527 whole entry): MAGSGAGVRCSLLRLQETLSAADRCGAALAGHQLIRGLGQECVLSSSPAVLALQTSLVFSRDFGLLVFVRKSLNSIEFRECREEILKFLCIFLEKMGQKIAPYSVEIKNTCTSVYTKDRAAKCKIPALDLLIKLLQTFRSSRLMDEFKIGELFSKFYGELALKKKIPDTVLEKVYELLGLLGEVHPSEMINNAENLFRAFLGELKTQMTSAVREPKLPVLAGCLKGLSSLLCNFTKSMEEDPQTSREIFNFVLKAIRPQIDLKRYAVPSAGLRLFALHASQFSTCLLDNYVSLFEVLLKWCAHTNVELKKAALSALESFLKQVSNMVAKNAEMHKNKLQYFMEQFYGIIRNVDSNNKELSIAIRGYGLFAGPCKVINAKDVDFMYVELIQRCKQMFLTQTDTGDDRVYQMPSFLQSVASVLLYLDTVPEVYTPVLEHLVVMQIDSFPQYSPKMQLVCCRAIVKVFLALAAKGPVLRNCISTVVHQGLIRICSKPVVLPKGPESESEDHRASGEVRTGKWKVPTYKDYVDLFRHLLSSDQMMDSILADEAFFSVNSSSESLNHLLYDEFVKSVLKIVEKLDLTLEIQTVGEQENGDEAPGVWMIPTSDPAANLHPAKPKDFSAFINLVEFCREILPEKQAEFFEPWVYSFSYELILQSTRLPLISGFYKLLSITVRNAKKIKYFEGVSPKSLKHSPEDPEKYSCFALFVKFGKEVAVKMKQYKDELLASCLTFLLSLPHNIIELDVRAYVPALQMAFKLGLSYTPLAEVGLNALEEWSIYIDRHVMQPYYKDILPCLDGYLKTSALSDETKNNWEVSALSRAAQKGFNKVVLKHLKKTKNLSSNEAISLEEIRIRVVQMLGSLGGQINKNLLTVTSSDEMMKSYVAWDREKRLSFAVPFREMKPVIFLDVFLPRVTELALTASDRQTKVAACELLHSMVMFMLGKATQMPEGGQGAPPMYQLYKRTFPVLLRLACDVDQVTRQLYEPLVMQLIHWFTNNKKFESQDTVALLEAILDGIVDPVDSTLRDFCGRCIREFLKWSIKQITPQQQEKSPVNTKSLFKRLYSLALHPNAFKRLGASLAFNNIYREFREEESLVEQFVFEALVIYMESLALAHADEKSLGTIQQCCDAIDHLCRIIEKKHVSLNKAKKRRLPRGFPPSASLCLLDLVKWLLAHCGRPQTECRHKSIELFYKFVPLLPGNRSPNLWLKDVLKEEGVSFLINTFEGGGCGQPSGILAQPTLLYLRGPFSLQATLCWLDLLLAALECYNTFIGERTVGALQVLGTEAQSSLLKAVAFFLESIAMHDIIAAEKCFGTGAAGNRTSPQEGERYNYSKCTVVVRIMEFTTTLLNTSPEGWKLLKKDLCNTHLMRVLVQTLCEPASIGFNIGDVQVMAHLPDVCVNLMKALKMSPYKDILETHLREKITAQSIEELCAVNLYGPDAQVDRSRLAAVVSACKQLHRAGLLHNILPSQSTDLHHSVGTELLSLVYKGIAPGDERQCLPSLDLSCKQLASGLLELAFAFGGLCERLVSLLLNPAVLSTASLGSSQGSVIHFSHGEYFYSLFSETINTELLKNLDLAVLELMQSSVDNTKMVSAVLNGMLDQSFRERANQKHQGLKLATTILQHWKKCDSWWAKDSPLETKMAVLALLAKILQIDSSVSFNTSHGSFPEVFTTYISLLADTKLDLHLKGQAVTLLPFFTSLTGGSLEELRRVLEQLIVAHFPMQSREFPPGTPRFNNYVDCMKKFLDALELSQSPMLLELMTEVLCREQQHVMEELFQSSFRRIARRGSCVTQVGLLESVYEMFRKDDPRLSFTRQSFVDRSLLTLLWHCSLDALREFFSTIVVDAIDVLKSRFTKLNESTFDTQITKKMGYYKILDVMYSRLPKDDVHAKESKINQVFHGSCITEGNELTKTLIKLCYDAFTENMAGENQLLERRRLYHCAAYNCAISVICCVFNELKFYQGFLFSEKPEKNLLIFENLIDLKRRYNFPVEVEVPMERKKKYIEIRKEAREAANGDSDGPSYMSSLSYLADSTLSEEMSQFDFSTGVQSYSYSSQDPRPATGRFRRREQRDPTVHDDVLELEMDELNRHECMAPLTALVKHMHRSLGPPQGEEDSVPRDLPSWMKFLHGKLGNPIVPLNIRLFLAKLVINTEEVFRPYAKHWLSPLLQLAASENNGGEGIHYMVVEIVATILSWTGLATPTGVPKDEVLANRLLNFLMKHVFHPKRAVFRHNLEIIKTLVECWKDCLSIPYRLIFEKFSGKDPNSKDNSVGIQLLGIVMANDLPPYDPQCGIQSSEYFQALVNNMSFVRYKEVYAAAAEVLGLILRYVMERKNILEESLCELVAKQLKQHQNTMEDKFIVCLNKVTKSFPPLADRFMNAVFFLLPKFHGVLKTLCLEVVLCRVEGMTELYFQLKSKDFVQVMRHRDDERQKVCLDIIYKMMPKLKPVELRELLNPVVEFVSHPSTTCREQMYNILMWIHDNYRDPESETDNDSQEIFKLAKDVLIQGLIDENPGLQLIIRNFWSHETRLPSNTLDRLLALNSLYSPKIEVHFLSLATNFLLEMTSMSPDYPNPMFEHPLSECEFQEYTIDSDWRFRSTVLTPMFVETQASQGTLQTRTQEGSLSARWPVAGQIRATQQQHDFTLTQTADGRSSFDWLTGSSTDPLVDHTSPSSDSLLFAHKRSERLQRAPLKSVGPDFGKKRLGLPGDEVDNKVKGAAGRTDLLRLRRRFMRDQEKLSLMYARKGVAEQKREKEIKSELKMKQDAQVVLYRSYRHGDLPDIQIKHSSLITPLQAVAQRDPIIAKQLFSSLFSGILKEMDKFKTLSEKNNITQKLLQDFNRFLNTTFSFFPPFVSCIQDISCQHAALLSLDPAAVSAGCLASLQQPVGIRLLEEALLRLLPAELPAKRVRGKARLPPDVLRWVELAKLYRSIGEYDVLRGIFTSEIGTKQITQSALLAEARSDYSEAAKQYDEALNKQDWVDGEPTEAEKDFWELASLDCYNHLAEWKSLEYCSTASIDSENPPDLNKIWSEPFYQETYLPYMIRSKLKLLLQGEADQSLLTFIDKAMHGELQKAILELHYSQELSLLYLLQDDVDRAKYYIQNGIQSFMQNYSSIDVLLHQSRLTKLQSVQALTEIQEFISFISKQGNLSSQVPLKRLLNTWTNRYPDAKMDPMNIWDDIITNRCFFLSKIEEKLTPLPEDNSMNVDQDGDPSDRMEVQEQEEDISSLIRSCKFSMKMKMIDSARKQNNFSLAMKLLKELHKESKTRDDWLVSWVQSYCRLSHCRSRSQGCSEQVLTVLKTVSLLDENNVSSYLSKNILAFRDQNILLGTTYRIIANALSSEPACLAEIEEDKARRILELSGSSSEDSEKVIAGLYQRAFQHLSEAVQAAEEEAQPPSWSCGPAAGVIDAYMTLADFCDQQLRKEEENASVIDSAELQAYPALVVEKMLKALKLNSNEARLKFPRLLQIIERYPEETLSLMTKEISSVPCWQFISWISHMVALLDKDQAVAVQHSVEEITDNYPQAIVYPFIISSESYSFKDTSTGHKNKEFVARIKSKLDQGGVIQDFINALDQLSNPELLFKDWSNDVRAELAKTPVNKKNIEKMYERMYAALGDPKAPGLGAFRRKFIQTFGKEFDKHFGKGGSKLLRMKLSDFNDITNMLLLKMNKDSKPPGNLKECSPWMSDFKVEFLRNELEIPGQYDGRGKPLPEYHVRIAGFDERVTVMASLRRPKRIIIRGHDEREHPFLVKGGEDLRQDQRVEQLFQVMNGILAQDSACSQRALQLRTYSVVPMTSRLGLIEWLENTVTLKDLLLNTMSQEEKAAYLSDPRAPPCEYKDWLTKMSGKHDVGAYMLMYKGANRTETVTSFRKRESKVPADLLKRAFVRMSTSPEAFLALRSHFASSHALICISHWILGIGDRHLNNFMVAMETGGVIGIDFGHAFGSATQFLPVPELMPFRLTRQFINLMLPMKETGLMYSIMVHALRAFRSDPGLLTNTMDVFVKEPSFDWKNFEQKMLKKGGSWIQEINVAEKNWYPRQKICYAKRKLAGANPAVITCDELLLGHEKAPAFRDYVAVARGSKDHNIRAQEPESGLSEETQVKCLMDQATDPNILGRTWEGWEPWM
Tyrosine-protein kinase ITK/TSK (Homo sapiens), sequence (Q08881 whole entry): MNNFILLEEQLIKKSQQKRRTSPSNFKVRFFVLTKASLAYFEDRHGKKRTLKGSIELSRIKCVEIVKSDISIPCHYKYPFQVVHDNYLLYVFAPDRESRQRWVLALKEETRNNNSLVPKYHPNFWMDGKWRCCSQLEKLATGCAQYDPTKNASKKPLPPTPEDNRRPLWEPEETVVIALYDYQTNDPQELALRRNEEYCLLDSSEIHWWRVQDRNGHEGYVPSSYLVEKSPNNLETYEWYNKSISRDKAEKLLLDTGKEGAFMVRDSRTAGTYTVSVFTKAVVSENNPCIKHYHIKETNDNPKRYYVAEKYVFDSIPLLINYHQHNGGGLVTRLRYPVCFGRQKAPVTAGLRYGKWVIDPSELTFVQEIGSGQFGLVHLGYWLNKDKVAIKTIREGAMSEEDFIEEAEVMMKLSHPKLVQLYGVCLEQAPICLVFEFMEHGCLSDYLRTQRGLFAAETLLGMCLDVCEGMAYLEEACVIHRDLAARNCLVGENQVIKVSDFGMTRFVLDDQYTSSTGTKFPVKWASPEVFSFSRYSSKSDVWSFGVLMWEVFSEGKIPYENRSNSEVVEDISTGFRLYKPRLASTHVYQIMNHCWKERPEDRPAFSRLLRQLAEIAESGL

`CNc1cc(Oc2cc(C(=O)Nc3cc(N4CCN(C)CC4)cc(C(F)(F)F)c3)ccc2C)ncn1`: the inhibition at 1 µM in assay [1] is 5.3%.
As to `CCN1CCN(Cc2ccc(NC(=O)c3ccc(C)c(/C=C/c4cnc5[nH]ccc5c4OC)c3)cc2C(F)(F)F)CC1`, the inhibition in assay [2] came to 81%; in assay [3], 100%; in assay [4], 27%. Besides, the residual activity was found to be 73% in assay [5] and 100% in assay [6].
Turning to `CCN1CCN(Cc2ccc(NC(=O)c3ccc(C)c(Oc4ccnc5[nH]ccc45)c3)cc2C(F)(F)F)CC1`, the inhibition in assay [7] was determined as 1.5%; in assay [12] it was 1.9%; in assay [13], 66.5%. Further, the inhibition entry in assay [8], in [9] and in assay [10] was “inactive” throughout. For the same compound, in assay [11], testing at 5 µM gave an inhibition of 42.8%. In [14], the IC50 was found to be 82.3 nM.

Values taken from ChEMBL document CHEMBL5696442, “Discovery of type II inhibitors of TGFβ-activated kinase 1 (TAK1) and mitogen-activated protein kinase kinase kinase kinase 2 (MAP4K2)” (J Med Chem, 2015).
